Measurements: ChEMBL document CHEMBL5113497, “Comparison of ATP-binding pockets and discovery of homologous recombination inhibitors” (Bioorg Med Chem, 2022)
Active and inactive are the calls of the source. The calls are words filed in the database; no cut-off is given here.

Tests used:
[1] = species: Homo sapiens; experiment: Inhibition of recombinant human RAD51/p53 (unknown origin) interaction at 200 uM measured by ELISA assay
[2] = biological target: T1, DNA repair protein RAD51 homolog 1 (Homo sapiens) (UniProt Q06609); experiment: Inhibition of RAD51 in human U2OS cells at 20 to 80 uM measured by direct repeats green fluorescent protein (DR-GFP) reporter assay; assay type: cell-based; conditions: dose 20-80 µM
T1 sequence (whole entry): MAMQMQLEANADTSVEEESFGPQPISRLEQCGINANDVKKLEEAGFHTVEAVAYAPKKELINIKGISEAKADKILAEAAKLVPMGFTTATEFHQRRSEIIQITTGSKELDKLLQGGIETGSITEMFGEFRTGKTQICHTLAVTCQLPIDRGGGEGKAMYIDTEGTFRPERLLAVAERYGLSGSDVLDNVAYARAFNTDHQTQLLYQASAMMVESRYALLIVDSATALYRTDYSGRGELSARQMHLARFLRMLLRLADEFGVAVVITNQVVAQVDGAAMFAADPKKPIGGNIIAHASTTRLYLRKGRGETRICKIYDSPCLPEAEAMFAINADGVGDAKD

SMILES	inhibition [1]	inhibition [2]
Cc1cc(C)c(CNC(=O)c2cccc(S(=O)(=O)N3C[C@H](C)C[C@@H](C)C3)c2)c(=O)[nH]1	Active	
Nc1ncnc2c1ncn2[C@@H]1O[C@H](COP(=O)(O)OP(=O)(O)OP(=O)(O)O)[C@@H](O)[C@H]1O	Active	
Nc1ncnc2c1ncn2[C@@H]1O[C@H](COP(=O)(O)OP(=O)(O)NP(=O)(O)O)[C@@H](O)[C@H]1O	Active	
Cc1c(F)cc(C(N)=O)cc1NC(=O)c1cccc(S(=O)(=O)Nc2ccccc2F)c1	Active	
Cc1ccc(-n2nnnc2SCC(=O)Nc2oc(C)c3c(C)n[nH]c(=O)c23)c(C)c1	Active	Active
C[C@@H]1Cc2ccccc2N1C(=O)COc1ccc(N(C)S(=O)(=O)c2ccccc2)cc1	Active	Active
